Tests used:
mice = assay: Acute toxicity after oral administration of a single dose; type: in vivo; details: observation period 14 days; for animals died (mortality): single dose 500 mg/kg; for Approximate acute toxicity: single dose, groups of 10
Experimental: The acute toxicity of the substances being tested was determined approximately in groups of 10 mice after oral administration of a single dose (observation period 14 days): […]

[1] = test system: platelet-rich plasma of healthy test subjects; assay: Antithrombotic activity: collagen-induced thrombocyte aggregation (BORN and CROSS method); type: cell-based; details: Homo sapiens, 10 min, plasma incubated for 10 minutes with the substance at 37° C., read-out: EC50 (50% change in the "optical density" in terms of an inhibition of aggregation)
Experimental: Thrombocyte aggregation is measured using the BORN and CROSS method (J. Physiol. 170, 397 (1964)) in the platelet-rich plasma of healthy test subjects. To inhibit coagulation, 3.14% sodium citrate is added to the blood in a ratio by volume of 1:10.
The pattern of the decrease in optical density of the platelet suspension is photometrically measured and recorded after the addition of aggregation-inducing substance. The rate of aggregation is determined from the angle of inclination of the density curve. The point on the curve at which there is maximum transmittance is used to calculate the "optical density".
The quantity of collagen is kept as small as possible but sufficient to produce an irreversible reaction curve. The standard commercial collagen produced by Hormonchemie of Munich is used. Before the addition of collagen, the plasma is incubated for 10 minutes with the substance at 37° C.
From the measurements obtained, an EC50 is determined graphically, showing a 50% change in the "optical density" in terms of an inhibition of aggregation.

Structure (SMILES) | animals died (mortality) (mice) | Approximate acute toxicity (mice) | EC50 [1]
Cn1c(CCNS(=O)(=O)c2ccccc2)ccc1C(=O)CCC(=O)O [Substance A, 4-[2-(2-Benzenesulphonylamino-ethyl)-1-methylpyrrol-5-yl]-4-oxybutyric acid] | 0 out of 10 animals | 500 mg/kg | 3500 nM
Cn1c(CCNS(=O)(=O)c2ccc(F)cc2)ccc1C(=O)CCC(=O)O [Substance D, 4-[2-(2-(p-Fluorobenzenesulphonylamino)-ethyl)-1-methylpyrrol-5-yl]-4-oxybutyric acid] | 0 out of 10 animals | 500 mg/kg | 360 nM
Cn1c(CCNS(=O)(=O)c2ccc(Cl)cc2)ccc1C(=O)CCC(=O)O [Substance B, 4-[2-(2-(p-chlorobenzenesulphonylamino)-ethyl)-1-methylpyrrol-5-yl]-4-oxybutyric acid] | 0 out of 10 animals | 500 mg/kg | 400 nM
Cn1c(CCNS(=O)(=O)c2cccs2)ccc1C(=O)CCC(=O)O [Substance C, 4-[2-(2-thiophen-2-yl-sulphonylamino-ethyl)-1-methylpyrrol-5-yl]-4-oxybutyric acid] | 0 out of 10 animals | 500 mg/kg | 390 nM
Cn1c(CCNS(=O)(=O)c2ccccc2)ccc1C1=NNC(=O)CC1 [Substance E, 6-[2-(2-Benzenesulphonylamino-ethyl)-1-methylpyrrol-5-yl]-4,5-dihydro-3(2H)-pyridazinone] | 0 out of 10 animals | 500 mg/kg | 2900 nM

From patent US5008290A, “Sulphonamidoethyl compounds and pharmaceutical compositions comprising these compounds” (Dr. Karl Thomae GmbH, priority 1986, dated 1991)
